In ChEMBL document CHEMBL4706537, “Suramin derivatives play an important role in blocking the interaction between FGF1 and FGFRD2 to inhibit cell proliferation” (Eur J Med Chem, 2020):
The source made the active and inactive calls. The calls are words filed in the database; no cut-off is given here.

Experiments:
MCF7 = assay: Cytotoxicity against FGF1-stimulated human MCF7 cells cultured in serum-starved media assessed as reduction in cell viability incubated for 48 hrs by WST-1 assay; assay type: functional, cell-based; conditions: MCF7, 48 h
[1] = target: T1, Fibroblast growth factor 1/Fibroblast growth factor receptor 2 (Homo sapiens) (UniProt P05230+P21802); assay: Inhibition of FGF1/FGFR2 D2 domain interaction in human MCF7 cells assessed as decrease in cell proliferation at 0.1 to 1 uM by WST-1 assay; assay type: cell-based; conditions: dose 0.1-1 µM
[2] = target: T1, Fibroblast growth factor 1/Fibroblast growth factor receptor 2 (Homo sapiens); assay: Inhibition of FGF1/FGFR2 D2 domain interaction in human MCF7 cells assessed as decrease in cell count at 0.1 to 1 uM by WST-1 assay; assay type: cell-based; conditions: dose 0.1-1 µM

T1 sequence (P05230 whole entry, looked up, the tested form may be a part): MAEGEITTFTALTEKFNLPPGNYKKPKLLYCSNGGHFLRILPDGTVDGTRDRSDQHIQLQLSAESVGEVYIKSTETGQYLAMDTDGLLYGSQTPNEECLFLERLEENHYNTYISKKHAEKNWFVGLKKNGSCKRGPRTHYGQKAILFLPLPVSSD
T1 sequence (P21802 whole entry, looked up, the tested form may be a part): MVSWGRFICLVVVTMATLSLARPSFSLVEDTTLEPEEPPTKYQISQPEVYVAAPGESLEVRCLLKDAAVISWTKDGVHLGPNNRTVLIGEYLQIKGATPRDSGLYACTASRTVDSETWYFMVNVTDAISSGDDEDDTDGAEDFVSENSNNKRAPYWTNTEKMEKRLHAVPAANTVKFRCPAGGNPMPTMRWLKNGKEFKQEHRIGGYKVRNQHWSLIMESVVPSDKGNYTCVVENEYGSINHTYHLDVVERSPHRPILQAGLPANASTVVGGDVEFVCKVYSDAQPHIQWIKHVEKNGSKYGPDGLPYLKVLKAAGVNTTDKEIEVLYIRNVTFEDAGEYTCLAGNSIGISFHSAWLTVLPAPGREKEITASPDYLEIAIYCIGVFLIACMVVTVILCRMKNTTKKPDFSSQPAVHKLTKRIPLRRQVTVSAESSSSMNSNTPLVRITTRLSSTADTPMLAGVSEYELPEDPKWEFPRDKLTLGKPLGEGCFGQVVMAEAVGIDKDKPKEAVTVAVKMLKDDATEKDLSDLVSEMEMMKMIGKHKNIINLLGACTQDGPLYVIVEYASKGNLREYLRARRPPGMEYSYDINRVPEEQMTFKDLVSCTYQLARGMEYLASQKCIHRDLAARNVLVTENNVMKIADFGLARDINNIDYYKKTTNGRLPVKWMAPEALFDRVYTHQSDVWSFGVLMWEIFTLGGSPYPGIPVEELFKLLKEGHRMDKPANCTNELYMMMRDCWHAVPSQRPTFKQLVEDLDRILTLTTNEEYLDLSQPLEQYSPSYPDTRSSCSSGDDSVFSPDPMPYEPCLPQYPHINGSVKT

Cc1ccc(C(=O)Nc2ccc(S(=O)(=O)O)c3cc(S(=O)(=O)O)cc(S(=O)(=O)O)c23)cc1NC(=O)c1cccc(NC(=O)Nc2cccc(C(=O)Nc3cc(C(=O)Nc4ccc(S(=O)(=O)O)c5cc(S(=O)(=O)O)cc(S(=O)(=O)O)c45)ccc3C)c2)c1 [SURAMIN]
IC50 (MCF7): 154 µM
inhibition [1]: Active

O=C(Nc1ccc(C(=O)Nc2ccc(C(=O)Nc3cccc4cc(S(=O)(=O)O)ccc34)cc2)cc1)Nc1ccc(C(=O)Nc2ccc(C(=O)Nc3cccc4cc(S(=O)(=O)O)ccc34)cc2)cc1
IC50 (MCF7): 619 µM
inhibition [1]: Active
inhibition [2]: Active
